The text below walks through data of patent publication US20090068290A1, “BIFEPRUNOX DOSES FOR TREATING SCHIZOPHRENIA” (priority 2006, published 2009).

The test system of data set [1] is adult subjects with schizophrenia. The data set is described as follows: BPRS total score, Clinical Study One. Format: in vivo, human. The following applies: Risperidone 6 mg, ITT population. On the procedure:
There were five treatment groups in this study. […] Study medication was administered once daily. After Baseline measurements were performed, the titration phase was begun. Bifeprunox treated subjects were titrated up to 5 mg, 10 mg or 20 mg according to a standardized titration schedule (Day 1: 0.125 mg, Day 2: 0.25 mg, Day 3: 0.5 mg, Day 4: 1.0 mg, Day 5: 2.0 mg, Day 6: 5.0 mg, Day 7: 10.0 mg, Day 8: 20 mg). When the assigned dose was reached, subjects were maintained at that dose for the remainder of the six-week treatment period.
The change in the Positive and Negative Symptom Scale (PANSS) total score, from baseline to endpoint, was the primary outcome measure. Secondary efficacy measures included: PANSS positive, PANSS negative, PANSS general psychopathology (GPP) score, PANSS-derived Brief Psychiatric Rating Scale (BPRS) score, Clinical Global Impressions-Severity of Illness (CGI-S), CGI-Improvement (CGI-I) scores, and responder rates. Safety and tolerability evaluations included extrapyramidal symptoms (EPS), weight gain, lipid profile, and serum prolactin.

For data set [2] the test system is unchanged. The data set is described as follows: PANSS responder rate, Clinical Study Two. Format: in vivo, human. The following applies: risperidone 6 mg. The method, then: Notable differences were also observed between the 30 mg bifeprunox group and placebo for the change from baseline to endpoint in PANSS general psychopathology subscale score, BPRS total score, BPRS psychosis cluster score, PANSS responder rate, and CGI-I responder rate. […] A CGI-I responder refers to a subject who was categorized as “very much improved” or “much improved” in the CGI Global Improvement scale at endpoint. […]
Subjects who completed this study had the option to continue in the long-term. […] Risperidone-treated subjects were titrated from 2 mg to 6 mg daily over a three-day period and were subsequently maintained at 6 mg/day for the remainder of the treatment period. […] Blood samples were also obtained at Screening/Baseline, Week 3, and Week 6 for clinical laboratory assessments. […]

Data set [3] shares this test system. The data set is described as follows: Adverse events (TEAE, SAE, special interest, discontinuation, EPS-related TEAE), Clinical Study Three. The following applies: Risperidone 6 mg. The method, then: There were four treatment arms in this study, approximately 144 subjects per arm. […] After completing the Single-Blind Placebo Lead-in Period of at least three days, bifeprunox-treated subjects were titrated from 0.25 mg up to 20 mg/day or 30 mg/day according to a standardized titration scheme over a seven- or eight-day period, respectively. When the assigned dose was reached, subjects were maintained at that dose for the remainder of the six week treatment period. […] Subjects were hospitalized (if not already inpatients) after eligibility for study entry was verified, starting from the Screening Visit until at least 10 days after Baseline. Subjects could be hospitalized longer than 10 days if considered medically necessary by the Investigator. Rating scale assessments for efficacy and abnormal movement disorders were done weekly except for Week 5. Safety assessments were performed at Screening, during treatment and at the end of the study. Subject satisfaction with study medication was assessed at Week 6. Samples of whole blood were obtained at Weeks 2, 4, and 6 for determination of bifeprunox in plasma.
EPS were assessed using treatment-emergent adverse events such as akathisia, dyskinesia, parkinsoniam, etc. and/or formal rating scales such as SAS, BAS, and/or AIMS.

Data set [4] can be described thus: Body weight, Clinical Study Three.
Excerpt: To assess the safety and tolerability of bifeprunox using physical examination, weight, waist circumference, vital signs (pulse rate and systolic/diastolic blood pressure [BP], and oral temperature), 12-lead electrocardiogram (ECG), clinical laboratory assessments (hematology, biochemistry including fasting insulin level, fasting glucose, fasting lipid profile, urinalysis, special laboratory assessments for prolactin, IGF-1, IGFBP-3, and thyroid function), need for anticholinergic treatment during double-blind treatment period, concomitant medication use, adverse event (AE) monitoring, and assessments of abnormal movement including the Simpson-Angus Scale (SAS), Barnes Akathisia Scale (BAS), and Abnormal Involuntary Movement Scale (AIMS).

With `Cc1nc2n(c(=O)c1CCN1CCC(c3noc4cc(F)ccc34)CC1)CCCC2` [Risperidone, risperidone, reference compound], in data set [1] (Endpoint LOCF), the “Change from Baseline in BPRS Total Score, Mean (S.D.)” value (“Change from Baseline … (S.D.)” below) was −9.2 (8.9) and the “Change from Baseline in BPRS Total Score, Median” value is recorded as −9. Also, in data set [1] (Week 1, LOCF), the “Change from Baseline … (S.D.)” value is listed as −4.6 (6.5) and the “Change from Baseline in BPRS Total Score, Median” value is −3. For the same compound, in data set [1] (Week 2, LOCF), the “Change from Baseline … (S.D.)” value is listed as −7.6 (8.4) and the “Change from Baseline in BPRS Total Score, Median” value is on record as −7. Besides, in data set [1] (Week 3, LOCF), the “Change from Baseline … (S.D.)” value is on record as −9.1 (8.4) and the “Change from Baseline in BPRS Total Score, Median” value is reported as −9. Also, in data set [1] (Week 4, LOCF), the “Change from Baseline … (S.D.)” value is −8.6 (9.0) and the “Change from Baseline in BPRS Total Score, Median” value is on record as −7. Besides, in data set [2] (Endpoint LOCF), the “PANSS 20% responder rate” value stood at 54% and the “PANSS 30% responder rate” value is 31%. Moreover, in data set [2] (LOCF, ITT), the “PANSS Responder at Endpoint, 30% Definition Responder, No” value is 104 (69%) n (%); the “PANSS Responder at Endpoint, 30% Definition Responder, Yes” value was 47 (31%) n (%); the “PANSS Responder at Week 6/Endpoint, 20% Definition, No” value is 69 (46%) n (%); the “PANSS Responder at Week 6/Endpoint, 20% Definition, Yes” value is given as 78 (54%) n (%). In data set [3], the “AKATHISIA, %” value is listed as 3%; the “BALANCE DISORDER, %” value is 1 (<1%); the “DIZZINESS, %” value is on record as 5%; the “DYSARTHRIA, %” value is 1 (<1%). Moreover, in data set [3], the “DYSKINESIA, %” value was 1 (<1%); the “EXTRAPYRAMIDAL DISORDER, %” value was 1%; the “HEADACHE, %” value amounted to 12%; the “HYPOKINESIA, %” value is given as 1 (<1%). In addition, in data set [3], the “Hypoaesthesia, %” value was 1 (<1%)); the “MUSCULOSKELETAL STIFFNESS, %” value is given as 1 (<1%); the “NECK PAIN, %” value is 1%; the “NERVOUS SYSTEM DISORDERS, %” value came out at 37%. Moreover, in data set [3], the “PAIN IN EXTREMITY, %” value was determined as 2%; the “PARAESTHESIA, %” value is on record as 1 (<1%); the “RESTLESS LEGS SYNDROME, %” value was 1 (<1%); the “SEDATION, %” value amounted to 8%. Moreover, in data set [3], the “SOMNOLENCE, %” value is recorded as 9%; the “SPEECH DISORDER, %” value is given as 1 (<1%); the “TREMOR, %” value came out at 3%.
Consider `Cc1cc2c(s1)Nc1ccccc1N=C2N1CCN(C)CC1` [Olanzapine, olanzapine, reference compound], for which, in data set [4] (Olanzapine 15 mg), the “Weight, Baseline, Max” value came to 300 lbs; the “Weight, Baseline, Mean (SD)” value was 175.2 (52.7) lbs; the “Weight, Baseline, Min” value is given as 68 lbs; the “Weight, Change from Baseline at Endpoint, Max” value is reported as 31 lbs. In data set [4] (Olanzapine 15 mg), the “Weight, Change from Baseline at Endpoint, Mean (SD)” value is given as 5.2 (6.9) lbs; the “Weight, Change from Baseline at Endpoint, Median” value worked out at 4 lbs; the “Weight, Change from Baseline at Endpoint, Min” value is listed as −7 lbs; the “Weight, Change from Baseline at Week 6, Max” value is recorded as 31 lbs. Further, in data set [4] (Olanzapine 15 mg), the “Weight, Change from Baseline at Week 6, Mean (SD)” value was 5.9 (7.3) lbs; the “Weight, Change from Baseline at Week 6, Median” value turned out to be 5 lbs; the “Weight, Change from Baseline at Week 6, Min” value is −7 lbs. Also, in data set [4] (olanzapine 15 mg, 6 weeks), the “mean body weight (in words)” value is “an increase in weight”.
